Where two headings read alike, the source gives them in different places. Some results are limits rather than exact numbers.

The results in this text go back to patent publication US20260184663A1, “INDENE COMPOUNDS, PHARMACEUTICAL COMPOSITIONS THEREOF, AND THEIR THERAPEUTIC APPLICATIONS” (NucMito Pharmaceuticals co. Ltd., priority 2022, published 2026).

Common to all, as to format: cell-based
Experiment [1] relates to MDA-MB-231 (breast cancer). Briefly: Antiproliferative activity (CCK-8 cell viability), MDA-MB-231. The following applies: Homo sapiens, 72 h; for inhibition at 3.3 µM: Compound concentration: 3.3 μM; for inhibition at 10 µM: Compound concentration: 10 μM; for inhibition at 30 µM: Compound concentration: 30 μM. An outline of the steps:
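MDA-MB-231 breast cancer cells, grown in DMEM with 10% FBS, were plated in 96-well plates at 2,000-5,000 cells/well. Once attached, they were exposed to compound and incubated at 37° C. for 72 h. Viability was then measured with CCK-8 (10 μL per well, 4 h at 37° C.) by absorbance at 450 nm, relative to DMSO vehicle wells.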

The subject of a further experiment is HepG2 (liver cancer). Kind of experiment: Antiproliferative activity (CCK-8 cell viability), HepG2. The following applies: Homo sapiens, 72 h; for inhibition at 3.3 µM: Compound concentration: 3.3 μM; for inhibition at 10 µM: Compound concentration: 10 μM; for inhibition at 30 µM: Compound concentration: 30 μM. The essentials: (§1)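 Cells grown in DMEM (HepG2, SW480), MEM (HeLa) or F-12K (A549), each with 10% FBS, then exposed to compound at 3.3, 10 or 30 μM for 72 h at 37 °C. CCK-8 absorbance at 450 nm; viability expressed as percent of DMSO-treated cells, graded as growth inhibition bands.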

Another experiment concerns SW480 (colon cancer). Briefly: Antiproliferative activity (CCK-8 cell viability), SW480. The following applies: Homo sapiens, 72 h; for inhibition at 3.3 µM: Compound concentration: 3.3 μM; for inhibition at 10 µM: Compound concentration: 10 μM; for inhibition at 30 µM: Compound concentration: 30 μM. The essentials:
as §1

The subject of experiment [2] is B16F10 (malignant melanoma). Kind of experiment: Antiproliferative activity (CCK-8 cell viability), B16F10. The following applies: Mus musculus, 72 h; for inhibition at 3.3 µM: B16-F10, Compound concentration: 3.3 μM; for inhibition at 10 µM: B16-F10, Compound concentration: 10 μM; for inhibition at 30 µM: B16-F10, Compound concentration: 30 μM. An outline of the steps: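 B16F10 melanoma cells grown in DMEM with 10% FBS were plated in 96-well plates at 2,000-5,000 cells/well. After attachment they were exposed to compound in medium for 72 h at 37° C. CCK-8 solution (10 μL) was then added, and after 4 h at 37° C absorbance was read at 450 nm.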

For experiment [3], the system named is A431 (epidermoid carcinoma). Briefly: Antiproliferative activity (CCK-8 cell viability), A431. The following applies: Homo sapiens, 72 h; for inhibition at 3.3 µM: A-431, Compound concentration: 3.3 μM; for inhibition at 10 µM: A-431, Compound concentration: 10 μM; for inhibition at 30 µM: A-431, Compound concentration: 30 μM. The essentials:
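A431 epidermoid carcinoma cells grown in DMEM with 10% FBS were plated at 2,000-5,000 cells/well in 96-well plates. After attachment they were exposed to compound at 3.3 μM, 10 μM, or 30 μM for 72 h at 37° C. Viability was then assessed by CCK-8 against DMSO vehicle-treated wells.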

Experiment [4] has as its system A549 (lung adenocarcinoma). Kind of experiment: Antiproliferative activity (CCK-8 cell viability), A549. The following applies: Homo sapiens, 72 h; for inhibition at 3.3 µM: Compound concentration: 3.3 μM; for inhibition at 10 µM: Compound concentration: 10 μM; for inhibition at 30 µM: Compound concentration: 30 μM. An outline of the steps: as §1
The subject of another experiment is HeLa (cervical cancer). Kind of experiment: Antiproliferative activity (CCK-8 cell viability), HeLa. The following applies: Homo sapiens, 72 h, read-out: Antiproliferative activity in cancerous cells, HELA (inhibition of cell growth); for inhibition at 3.3 µM: Compound concentration: 3.3 μM; for inhibition at 10 µM: Compound concentration: 10 μM. The essentials:
as §1

Where [5] appears, read: read-out: Antiproliferative activity in cancerous cells, MDA-MB-231 (inhibition of cell growth).
[6] abbreviates: read-out: Antiproliferative activity in cancerous cells, HepG2 (inhibition of cell growth).
The mark [7] stands for this setting: read-out: Antiproliferative activity in cancerous cells, SW480 (inhibition of cell growth).
[8] abbreviates: read-out: Antiproliferative activity in cancerous cells, SW480.
The mark [9] stands for this setting: read-out: Antiproliferative activity in cancerous cells, B16F10 (inhibition of cell growth).
Setting [10] is: read-out: Antiproliferative activity in cancerous cells, A431 (inhibition of cell growth).
Where [11] appears, read: read-out: Antiproliferative activity in cancerous cells, A549 (inhibition of cell growth).

For the molecule `CC1=C(CC(=O)O)c2cc(Br)ccc2/C1=C\c1ccc(Oc2ccc(F)cc2)cc1` [C86, (Z)-2-(5-Bromo-1-(4-(4-fluorophenoxy)benzylidene)-2-methyl-1H-inden-3-yl)acetic acid], the inhibition at 3.3 µM in experiment [1] (setting [5]) is less than 30%; in the experiment with HepG2 (liver cancer) (setting [6]), less than 30%; in the experiment on SW480 (colon cancer) (setting [7]), less than 30%; in experiment [2] (setting [9]), less than 30%; in experiment [3] (setting [10]), 30 to 50%; in experiment [4] (setting [11]), less than 30%. Further, the inhibition at 3.3 µM with HeLa (cervical cancer) is less than 30%. Also, the inhibition at 10 µM was less than 30% in experiment [1] (setting [5]); less than 30% in the experiment with HepG2 (liver cancer) (setting [6]); less than 30% in the experiment on SW480 (colon cancer) (setting [7]); 30 to 50% in experiment [2] (setting [9]); 30 to 50% in experiment [3] (setting [10]); less than 30% in experiment [4] (setting [11]). The inhibition at 10 µM with HeLa (cervical cancer) was less than 30%. Also, the inhibition at 30 µM is less than 30% in experiment [1] (read-out: Antiproliferative activity in cancerous cells, MDA-MB-231); less than 30% in the experiment with HepG2 (liver cancer) (read-out: Antiproliferative activity in cancerous cells, HepG2); less than 30% with SW480 (colon cancer) (setting [8]); 30 to 50% in experiment [2] (read-out: Antiproliferative activity in cancerous cells, B16F10); 30 to 50% in experiment [3] (read-out: Antiproliferative activity in cancerous cells, A431); less than 30% in experiment [4] (read-out: Antiproliferative activity in cancerous cells, A549).
On to `CC1=C(CC(=O)O)c2cc(F)ccc2/C1=C\c1ccc(Oc2ccc(Cl)cc2)cc1Cl` [C59, (Z)-2-(1-(2-Chloro-4-(4-chlorophenoxy)benzylidene)-5-fluoro-2-methyl-1H-inden-3-yl)acetic acid], for which the inhibition at 3.3 µM in experiment [1] (setting [5]) is less than 30%; in the experiment with HepG2 (liver cancer) (setting [6]), no less than 50%; with SW480 (colon cancer) (setting [7]), less than 30%; in experiment [2] (setting [9]), less than 30%; in experiment [3] (setting [10]), no less than 50%; in experiment [4] (setting [11]), 30 to 50%. Besides, the inhibition at 3.3 µM with HeLa (cervical cancer) was no less than 50%. Moreover, the inhibition at 10 µM is less than 30% in experiment [1] (setting [5]); no less than 50% in the experiment with HepG2 (liver cancer) (setting [6]); no less than 50% with SW480 (colon cancer) (setting [7]); no less than 50% in experiment [2] (setting [9]); no less than 50% in experiment [3] (setting [10]); no less than 50% in experiment [4] (setting [11]). The inhibition at 10 µM in the experiment with HeLa (cervical cancer) is no less than 50%.
For `CC1=C(CC(=O)O)c2cc(F)ccc2/C1=C\c1ccc(Oc2cccc(Cl)c2)cc1` [C61, (Z)-2-(1-(4-(3-Chlorophenoxy)benzylidene)-5-fluoro-2-methyl-H-inden-3-yl)acetic acid], the inhibition at 3.3 µM in experiment [1] (setting [5]) was less than 30%; with HepG2 (liver cancer) (setting [6]) it was 30 to 50%; in the experiment with SW480 (colon cancer) (setting [7]) it was less than 30%; in experiment [2] (setting [9]) it was less than 30%; in experiment [3] (setting [10]), no less than 50%; in experiment [4] (setting [11]), 30 to 50%. Further, the inhibition at 3.3 µM with HeLa (cervical cancer) is 30 to 50%. The inhibition at 10 µM was less than 30% in experiment [1] (setting [5]); 30 to 50% in the experiment on HepG2 (liver cancer) (setting [6]); less than 30% in the experiment with SW480 (colon cancer) (setting [7]); less than 30% in experiment [2] (setting [9]); no less than 50% in experiment [3] (setting [10]); no less than 50% in experiment [4] (setting [11]). In addition, the inhibition at 10 µM in the experiment on HeLa (cervical cancer) was no less than 50%. For the same molecule, the inhibition at 30 µM in the experiment with SW480 (colon cancer) (setting [8]) was less than 30%.
For `COc1cc(Oc2ccc(/C=C3/C(C)=C(CC(=O)O)c4cc(F)ccc43)cc2)ccc1Cl` [C71, (Z)-2-(1-(4-(4-Chloro-3-methoxyphenoxy)benzylidene)-5-fluoro-2-methyl-1H-inden-3-yl)acetic acid], the inhibition at 3.3 µM in experiment [1] (setting [5]) is less than 30%; in the experiment on HepG2 (liver cancer) (setting [6]) it was no less than 50%; in the experiment with SW480 (colon cancer) (setting [7]), less than 30%; in experiment [2] (setting [9]) it was no less than 50%; in experiment [3] (setting [10]) it was no less than 50%; in experiment [4] (setting [11]) it was less than 30%. The inhibition at 3.3 µM in the experiment with HeLa (cervical cancer) was in the range of 30 to 50%. Further, the inhibition at 10 µM in experiment [1] (setting [5]) was 30 to 50%; in the experiment with HepG2 (liver cancer) (setting [6]) it was no less than 50%; with SW480 (colon cancer) (setting [7]), no less than 50%; in experiment [2] (setting [9]) it was no less than 50%; in experiment [3] (setting [10]), no less than 50%; in experiment [4] (setting [11]), 30 to 50%. The inhibition at 10 µM in the experiment on HeLa (cervical cancer) is no less than 50%.
For `CC1=C(CC(=O)O)c2cc(F)ccc2/C1=C\c1cccc(Oc2cccc(Cl)c2)c1` [C101, (Z)-2-(1-(3-(3-Chlorophenoxy)benzylidene)-5-fluoro-2-methyl-1H-inden-3-yl)acetic acid], the inhibition at 3.3 µM in experiment [1] (setting [5]) is less than 30%; in the experiment with HepG2 (liver cancer) (setting [6]), less than 30%; with SW480 (colon cancer) (setting [7]), less than 30%; in experiment [2] (setting [9]), no less than 50%; in experiment [3] (setting [10]), 30 to 50%; in experiment [4] (setting [11]) it was less than 30%. Further, the inhibition at 3.3 µM in the experiment on HeLa (cervical cancer) is less than 30%. In addition, the inhibition at 10 µM is less than 30% in experiment [1] (setting [5]); no less than 50% with HepG2 (liver cancer) (setting [6]); 30 to 50% in the experiment with SW480 (colon cancer) (setting [7]); no less than 50% in experiment [2] (setting [9]); no less than 50% in experiment [3] (setting [10]); less than 30% in experiment [4] (setting [11]). The inhibition at 10 µM in the experiment with HeLa (cervical cancer) was in the range of 30 to 50%.
With `CC1=C(CC(=O)O)c2cc(F)ccc2/C1=C\c1ccc(C(=O)c2cc3ccccc3o2)cc1` [C309, (Z)-2-(1-(4-(Benzofuran-2-carbonyl)benzylidene)-5-fluoro-2-methyl-1H-inden-3-yl)acetic acid], the inhibition at 3.3 µM in experiment [1] (setting [5]) was 30 to 50%; in the experiment on HepG2 (liver cancer) (setting [6]), less than 30%; in the experiment with SW480 (colon cancer) (setting [7]) it was less than 30%; in experiment [2] (setting [9]) it was less than 30%; in experiment [3] (setting [10]) it was 30 to 50%; in experiment [4] (setting [11]), less than 30%. Also, the inhibition at 3.3 µM in the experiment on HeLa (cervical cancer) lay within 30 to 50%. The inhibition at 10 µM is 30 to 50% in experiment [1] (setting [5]); no less than 50% in the experiment on HepG2 (liver cancer) (setting [6]); no less than 50% in the experiment on SW480 (colon cancer) (setting [7]); no less than 50% in experiment [2] (setting [9]); no less than 50% in experiment [3] (setting [10]); 30 to 50% in experiment [4] (setting [11]). Further, in the experiment on HeLa (cervical cancer), the inhibition at 10 µM is no less than 50%. Moreover, the inhibition at 30 µM (in experiment [1] (setting [5]); in the experiment on HepG2 (liver cancer) (setting [6]); with SW480 (colon cancer) (setting [7]); in experiment [2] (setting [9]); in experiment [3] (setting [10]); in experiment [4] (setting [11])) was no less than 50% throughout. Also, in the experiment with HeLa (cervical cancer) (Compound concentration: 30 μM), the inhibition at 30 µM is no less than 50%.
